Read-outs that look alike come from different tables or passages of the source.
How the values were obtained:
Test in all cases: Kinase panel
Assay type in all cases: biochemical
AKT2 = AKT2 (Homo sapiens, UniProt P31751); conditions: AKT2, 1 µM; read-out: residual enzyme activity
Outline: (§1)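 Full kinase panel, biochemical readout. A single 1 µM compound concentration was tested, and residual activity was derived; kinases whose activity dropped to 40% or less were recorded.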

CDK18/CYCLIN Y (PCTK3) = CDK18/CYCLIN Y (PCTK3) (Homo sapiens, UniProt Q07002); conditions: read-out: residual enzyme activity
Outline: as §1

CHK2 = CHK2 (Homo sapiens, UniProt O96017); conditions: CHK2, 1 µM; read-out: residual enzyme activity
Outline: as §1

DCAMKL2 = DCAMKL2 (Homo sapiens, UniProt Q8N568); conditions: DCAMKL2, 1 µM; read-out: residual enzyme activity
Outline: as §1

DYRK2 = DYRK2 (Homo sapiens, UniProt Q92630); conditions: DYRK2, 1 µM; read-out: residual enzyme activity
Outline: as §1

EPHAS = EPHAS (Homo sapiens, UniProt P29322); conditions: read-out: residual enzyme activity
Outline: as §1

IKKE/IKBKE = IKKE/IKBKE (Homo sapiens, UniProt Q14164); conditions: read-out: residual enzyme activity
Outline: as §1

KSR1 = KSR1 (Homo sapiens, UniProt Q8IVT5); conditions: KSR1, 1 µM; read-out: residual enzyme activity
Outline: as §1

MARK4 = MARK4 (Homo sapiens, UniProt Q96L34); conditions: MARK4, 1 µM; read-out: residual enzyme activity
Outline: as §1

MEK5 = MEK5 (Homo sapiens, UniProt Q13163); conditions: MEK5, 1 µM; read-out: residual enzyme activity
Outline: as §1

MNK2 = MNK2 (Homo sapiens, UniProt Q9HBH9); conditions: MNK2, 1 µM; read-out: residual enzyme activity
Outline: as §1

MRCKB/CDC42BPB = MRCKB/CDC42BPB (Homo sapiens, UniProt Q9Y5S2); conditions: read-out: residual enzyme activity
Outline: as §1

MSK2/RPS6KA4 = MSK2/RPS6KA4 (Homo sapiens, UniProt O75676); conditions: MSK2/RPS6KA4, 1 µM; read-out: residual enzyme activity
Outline: as §1

P38B/MAPK11 = P38B/MAPK11 (Homo sapiens, UniProt Q15759); conditions: read-out: residual enzyme activity
Outline: as §1

PASK = PASK (Homo sapiens, UniProt Q96RG2); conditions: read-out: residual enzyme activity
Outline: as §1

PDGFRB = PDGFRB (Homo sapiens, UniProt P09619); conditions: read-out: residual enzyme activity
Outline: as §1

PDK1/PDPK1 = PDK1/PDPK1 (Homo sapiens, UniProt O15530); conditions: PDK1/PDPK1, 1 µM; read-out: residual enzyme activity
Outline: as §1

PKD2/PRKD2 = PKD2/PRKD2 (Homo sapiens, UniProt Q9BZL6); conditions: PKD2/PRKD2, 1 µM; read-out: residual enzyme activity
Outline: as §1

PKN2/PRK2 = PKN2/PRK2 (Homo sapiens, UniProt Q16513); conditions: PKN2/PRK2, 1 µM; read-out: residual enzyme activity
Outline: as §1

PKN3/PRK3 = PKN3/PRK3 (Homo sapiens, UniProt Q6P5Z2); conditions: PKN3/PRK3, 1 µM; read-out: residual enzyme activity
Outline: as §1

RAF1 = RAF1 (Homo sapiens, UniProt P04049); conditions: RAF1, 1 µM; read-out: residual enzyme activity
Outline: as §1

SRMS = SRMS (Homo sapiens, UniProt Q9H3Y6); conditions: read-out: residual enzyme activity
Outline: as §1

SRPK2 = SRPK2 (Homo sapiens, UniProt P78362); conditions: SRPK2, 1 µM; read-out: residual enzyme activity
Outline: as §1

STK25/YSK1 = STK25/YSK1 (Homo sapiens, UniProt O00506); conditions: STK25/YSK1, 1 µM; read-out: residual enzyme activity
Outline: as §1

STK33 = STK33 (Homo sapiens, UniProt Q9BYT3); conditions: STK33, 1 µM; read-out: residual enzyme activity
Outline: as §1

STK39/STLK3 = STK39/STLK3 (Homo sapiens, UniProt Q9UEW8); conditions: STK39/STLK3, 1 µM; read-out: residual enzyme activity
Outline: as §1

TRKA = TRKA (Homo sapiens, UniProt P04629); conditions: read-out: residual enzyme activity
Outline: as §1

TRKB = TRKB (Homo sapiens, UniProt Q16620); conditions: read-out: residual enzyme activity
Outline: as §1

TTBK1 = TTBK1 (Homo sapiens, UniProt Q5TCY1); conditions: TTBK1, 1 µM; read-out: residual enzyme activity
Outline: as §1

VRK2 = VRK2 (Homo sapiens, UniProt Q86Y07); conditions: VRK2, 1 µM; read-out: residual enzyme activity
Outline: as §1

YES/YES1 = YES/YES1 (Homo sapiens, UniProt P07947); conditions: YES/YES1, 1 µM; read-out: residual enzyme activity
Outline: as §1

YSK4/MAP3K19 = YSK4/MAP3K19 (Homo sapiens, UniProt Q56UN5); conditions: YSK4/MAP3K19, 1 µM; read-out: residual enzyme activity
Outline: as §1

ZIPK/DAPK3 = ZIPK/DAPK3 (Homo sapiens, UniProt O43293); conditions: ZIPK/DAPK3, 1 µM; read-out: residual enzyme activity
Outline: as §1

Chain of TRKB (Q16620 32-822, species assumed): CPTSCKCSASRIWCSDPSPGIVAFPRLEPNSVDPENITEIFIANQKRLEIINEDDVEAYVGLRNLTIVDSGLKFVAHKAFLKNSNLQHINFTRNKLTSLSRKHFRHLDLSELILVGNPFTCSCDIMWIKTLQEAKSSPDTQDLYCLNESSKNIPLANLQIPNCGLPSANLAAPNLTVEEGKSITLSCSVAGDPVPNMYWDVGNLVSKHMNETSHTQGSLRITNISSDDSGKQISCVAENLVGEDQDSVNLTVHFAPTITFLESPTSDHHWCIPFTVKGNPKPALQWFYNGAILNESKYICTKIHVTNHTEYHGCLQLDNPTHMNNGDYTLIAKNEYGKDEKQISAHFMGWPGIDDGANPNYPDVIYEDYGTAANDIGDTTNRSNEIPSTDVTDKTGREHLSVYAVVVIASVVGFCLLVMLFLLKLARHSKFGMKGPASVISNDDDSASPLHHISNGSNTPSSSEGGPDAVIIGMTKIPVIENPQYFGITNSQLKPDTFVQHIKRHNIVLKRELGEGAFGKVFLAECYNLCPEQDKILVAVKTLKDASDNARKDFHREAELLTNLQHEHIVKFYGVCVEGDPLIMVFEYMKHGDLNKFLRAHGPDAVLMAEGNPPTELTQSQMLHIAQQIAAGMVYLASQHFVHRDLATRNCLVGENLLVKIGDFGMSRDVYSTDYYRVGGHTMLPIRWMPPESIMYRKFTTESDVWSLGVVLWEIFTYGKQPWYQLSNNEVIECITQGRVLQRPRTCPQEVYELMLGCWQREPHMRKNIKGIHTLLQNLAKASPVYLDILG
Chain of IKKE/IKBKE (Q14164 whole entry): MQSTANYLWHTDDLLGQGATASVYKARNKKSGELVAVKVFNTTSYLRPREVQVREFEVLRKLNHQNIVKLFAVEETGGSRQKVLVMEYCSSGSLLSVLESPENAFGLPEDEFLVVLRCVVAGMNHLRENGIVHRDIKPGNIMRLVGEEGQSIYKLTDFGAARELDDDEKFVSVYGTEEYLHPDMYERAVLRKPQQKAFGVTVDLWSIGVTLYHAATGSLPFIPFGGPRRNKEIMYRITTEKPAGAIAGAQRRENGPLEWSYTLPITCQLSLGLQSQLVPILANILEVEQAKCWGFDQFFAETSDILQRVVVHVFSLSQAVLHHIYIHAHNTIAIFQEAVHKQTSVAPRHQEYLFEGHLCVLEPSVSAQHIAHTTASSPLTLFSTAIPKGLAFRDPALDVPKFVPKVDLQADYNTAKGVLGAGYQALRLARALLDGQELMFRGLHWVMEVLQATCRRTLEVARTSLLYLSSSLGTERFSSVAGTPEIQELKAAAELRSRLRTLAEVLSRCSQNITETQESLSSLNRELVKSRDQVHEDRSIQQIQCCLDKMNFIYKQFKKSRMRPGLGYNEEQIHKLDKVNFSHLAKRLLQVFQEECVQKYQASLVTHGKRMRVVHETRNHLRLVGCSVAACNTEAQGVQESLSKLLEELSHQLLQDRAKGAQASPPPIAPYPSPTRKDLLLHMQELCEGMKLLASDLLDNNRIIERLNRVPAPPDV
Chain of PASK (Q96RG2 whole entry): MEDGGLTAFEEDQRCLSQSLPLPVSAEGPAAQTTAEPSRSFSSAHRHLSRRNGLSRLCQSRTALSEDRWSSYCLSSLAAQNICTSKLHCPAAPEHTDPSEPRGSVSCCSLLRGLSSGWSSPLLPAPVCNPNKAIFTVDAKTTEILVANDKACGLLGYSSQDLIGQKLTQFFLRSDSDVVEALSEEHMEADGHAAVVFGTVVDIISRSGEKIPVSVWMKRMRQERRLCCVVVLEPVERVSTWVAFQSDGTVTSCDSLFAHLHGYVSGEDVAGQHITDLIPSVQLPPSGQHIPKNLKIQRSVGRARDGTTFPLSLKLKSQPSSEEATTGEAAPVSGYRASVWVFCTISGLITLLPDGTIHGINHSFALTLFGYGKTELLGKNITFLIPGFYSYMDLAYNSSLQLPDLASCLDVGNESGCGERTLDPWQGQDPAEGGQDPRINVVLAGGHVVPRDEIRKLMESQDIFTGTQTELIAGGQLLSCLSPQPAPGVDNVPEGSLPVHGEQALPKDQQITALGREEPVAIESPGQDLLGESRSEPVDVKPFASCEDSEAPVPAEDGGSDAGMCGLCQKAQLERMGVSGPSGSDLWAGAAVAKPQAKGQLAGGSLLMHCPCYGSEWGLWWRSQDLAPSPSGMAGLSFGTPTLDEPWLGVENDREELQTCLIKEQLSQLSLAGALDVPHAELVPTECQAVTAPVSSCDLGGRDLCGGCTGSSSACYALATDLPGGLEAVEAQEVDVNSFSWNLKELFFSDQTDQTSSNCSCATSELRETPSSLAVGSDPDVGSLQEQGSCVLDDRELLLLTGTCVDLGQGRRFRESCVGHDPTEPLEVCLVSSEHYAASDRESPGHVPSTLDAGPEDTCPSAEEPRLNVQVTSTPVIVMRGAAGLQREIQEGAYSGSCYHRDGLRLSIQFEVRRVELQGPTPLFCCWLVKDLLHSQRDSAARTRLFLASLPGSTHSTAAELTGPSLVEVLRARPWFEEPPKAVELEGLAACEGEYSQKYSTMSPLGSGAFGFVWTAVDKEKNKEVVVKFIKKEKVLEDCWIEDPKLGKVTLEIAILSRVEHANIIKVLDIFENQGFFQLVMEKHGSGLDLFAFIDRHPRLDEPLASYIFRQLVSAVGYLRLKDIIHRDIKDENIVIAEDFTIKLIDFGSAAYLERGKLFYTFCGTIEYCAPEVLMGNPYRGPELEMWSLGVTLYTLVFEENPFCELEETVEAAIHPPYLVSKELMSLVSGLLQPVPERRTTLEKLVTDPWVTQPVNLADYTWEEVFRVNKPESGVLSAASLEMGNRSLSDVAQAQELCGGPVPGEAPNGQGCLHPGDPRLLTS
Chain of STK25/YSK1 (O00506 whole entry): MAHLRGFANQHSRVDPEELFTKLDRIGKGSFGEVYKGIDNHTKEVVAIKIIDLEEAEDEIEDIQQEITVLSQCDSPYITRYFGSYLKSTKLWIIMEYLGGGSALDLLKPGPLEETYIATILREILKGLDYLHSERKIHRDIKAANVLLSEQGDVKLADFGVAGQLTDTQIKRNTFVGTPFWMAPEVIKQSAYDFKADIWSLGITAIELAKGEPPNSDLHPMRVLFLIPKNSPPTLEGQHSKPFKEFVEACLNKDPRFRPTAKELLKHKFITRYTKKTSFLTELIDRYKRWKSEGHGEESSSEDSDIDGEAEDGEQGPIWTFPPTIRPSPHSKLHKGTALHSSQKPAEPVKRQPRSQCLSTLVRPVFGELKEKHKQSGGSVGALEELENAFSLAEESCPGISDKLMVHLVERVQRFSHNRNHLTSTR
Chain of MARK4 (Q96L34 whole entry, species assumed): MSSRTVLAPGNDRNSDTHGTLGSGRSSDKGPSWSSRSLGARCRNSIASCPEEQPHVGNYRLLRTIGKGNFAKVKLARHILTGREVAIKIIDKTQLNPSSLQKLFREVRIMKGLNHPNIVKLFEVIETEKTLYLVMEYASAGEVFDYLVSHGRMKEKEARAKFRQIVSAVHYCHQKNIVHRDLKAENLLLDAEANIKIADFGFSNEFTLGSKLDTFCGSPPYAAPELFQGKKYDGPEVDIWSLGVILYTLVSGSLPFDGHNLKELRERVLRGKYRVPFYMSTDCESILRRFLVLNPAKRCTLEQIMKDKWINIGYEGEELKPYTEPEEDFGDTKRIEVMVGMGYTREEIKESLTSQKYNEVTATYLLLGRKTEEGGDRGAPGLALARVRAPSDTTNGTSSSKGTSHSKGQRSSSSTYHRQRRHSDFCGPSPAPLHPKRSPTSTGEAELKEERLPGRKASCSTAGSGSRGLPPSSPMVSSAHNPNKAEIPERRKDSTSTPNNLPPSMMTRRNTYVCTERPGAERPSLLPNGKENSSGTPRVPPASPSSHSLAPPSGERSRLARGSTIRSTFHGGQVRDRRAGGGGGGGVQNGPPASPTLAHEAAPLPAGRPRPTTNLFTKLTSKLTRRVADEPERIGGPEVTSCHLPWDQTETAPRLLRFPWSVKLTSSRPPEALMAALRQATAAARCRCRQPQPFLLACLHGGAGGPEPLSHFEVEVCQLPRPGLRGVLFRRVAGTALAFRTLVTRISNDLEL
Chain of P38B/MAPK11 (Q15759 whole entry): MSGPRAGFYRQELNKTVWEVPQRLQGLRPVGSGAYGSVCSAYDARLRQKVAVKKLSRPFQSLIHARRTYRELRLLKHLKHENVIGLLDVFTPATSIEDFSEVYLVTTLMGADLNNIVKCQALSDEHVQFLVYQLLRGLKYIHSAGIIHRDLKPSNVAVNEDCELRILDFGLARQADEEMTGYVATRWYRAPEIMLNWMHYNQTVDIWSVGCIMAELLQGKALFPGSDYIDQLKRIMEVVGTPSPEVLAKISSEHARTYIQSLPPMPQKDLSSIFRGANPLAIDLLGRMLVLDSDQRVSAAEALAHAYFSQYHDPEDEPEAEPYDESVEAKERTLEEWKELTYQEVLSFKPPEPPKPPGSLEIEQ
Chain of DYRK2 (Q92630 whole entry, species assumed): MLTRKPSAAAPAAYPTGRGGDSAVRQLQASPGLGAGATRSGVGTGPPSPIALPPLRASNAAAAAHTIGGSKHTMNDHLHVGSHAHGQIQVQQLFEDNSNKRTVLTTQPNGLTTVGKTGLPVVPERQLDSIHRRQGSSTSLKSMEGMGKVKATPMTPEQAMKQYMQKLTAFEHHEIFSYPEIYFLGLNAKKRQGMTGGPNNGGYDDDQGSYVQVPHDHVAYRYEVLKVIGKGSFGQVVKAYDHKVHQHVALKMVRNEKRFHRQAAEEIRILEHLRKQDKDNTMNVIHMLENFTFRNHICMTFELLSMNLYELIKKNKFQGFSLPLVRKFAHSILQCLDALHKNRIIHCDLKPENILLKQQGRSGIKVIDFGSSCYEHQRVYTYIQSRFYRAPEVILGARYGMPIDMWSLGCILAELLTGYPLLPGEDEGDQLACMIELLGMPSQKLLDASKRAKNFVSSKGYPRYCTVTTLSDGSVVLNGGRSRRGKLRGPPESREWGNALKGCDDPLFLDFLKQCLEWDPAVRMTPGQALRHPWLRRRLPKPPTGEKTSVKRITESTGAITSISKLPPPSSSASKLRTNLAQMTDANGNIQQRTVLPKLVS

SMILES | remaining activity at 1 µM (AKT2) [%] | remaining activity at 1 µM (CDK18/CYCLIN Y (PCTK3)) [%] | remaining activity at 1 µM (CHK2) [%] | remaining activity at 1 µM (DCAMKL2) [%] | remaining activity at 1 µM (DYRK2) [%] | remaining activity at 1 µM (IKKE/IKBKE) [%] | remaining activity at 1 µM (KSR1) [%] | remaining activity at 1 µM (MARK4) [%] | remaining activity at 1 µM (MEK5) [%] | remaining activity at 1 µM (MNK2) [%] | remaining activity at 1 µM (MRCKB/CDC42BPB) [%] | remaining activity at 1 µM (MSK2/RPS6KA4) [%] | remaining activity at 1 µM (PASK) [%] | remaining activity at 1 µM (PDGFRB) [%] | remaining activity at 1 µM (PDK1/PDPK1) [%] | remaining activity at 1 µM (PKD2/PRKD2) [%] | remaining activity at 1 µM (PKN2/PRK2) [%] | remaining activity at 1 µM (PKN3/PRK3) [%] | remaining activity at 1 µM (RAF1) [%] | remaining activity at 1 µM (SRMS) [%] | further results
Cc1ccc(Nc2ncc3c(n2)C2(CC2)C(=O)N(c2cc(NC(=O)c4cccc(C(F)(F)F)c4)ccc2C)C3)cn1 [Compound 51, N-(4-methyl-3-(2'-((6-methylpyridin-3-yl)amino)-7'-oxo-5'H-spiro[cyclopropane-1,8'-pyrido[4,3-d]pyrimidine]-6'(7'H)-yl)phenyl)-3-(trifluoromethyl)benzamide] | > 40 | > 40 | > 40 | > 40 | > 40 | > 40 | > 40 | > 40 | ≤ 40 | > 40 | > 40 | > 40 | > 40 | ≤ 40 | > 40 | > 40 | > 40 | > 40 | ≤ 40 | ≤ 40 | remaining activity at 1 µM (EPHAS; EPHA8, 1 µM): ≤ 40%; remaining activity at 1 µM (P38B/MAPK11; P38b/MAPK11, 1 µM): ≤ 40%; remaining activity at 1 µM (SRPK2): > 40%; remaining activity at 1 µM (STK25/YSK1): > 40%; remaining activity at 1 µM (STK33): > 40%; remaining activity at 1 µM (STK39/STLK3): > 40%; remaining activity at 1 µM (TRKA): ≤ 40%; remaining activity at 1 µM (TRKB): ≤ 40%; remaining activity at 1 µM (TTBK1): > 40%; remaining activity at 1 µM (VRK2): > 40%; remaining activity at 1 µM (YES/YES1): ≤ 40%; remaining activity at 1 µM (YSK4/MAP3K19): ≤ 40%; remaining activity at 1 µM (ZIPK/DAPK3): > 40%
Cc1cn(-c2cc(C(=O)Nc3ccc(C)c(N4Cc5cnc(NC6CC6)nc5C5(CC5)C4=O)c3)cc(C(F)(F)F)c2)cn1 [Compound 8, N-(3-(2'-(cyclopropylamino)-7'-oxo-5'H-spiro[cyclopropane-1,8'-pyrido[4,3-d]pyrimidine]-6'(7'H)-yl)-4-methylphenyl)-3-(4-methyl-1H-imidazol-1-yl)-5-(trifluoromethyl)benzamide] | > 40 | > 40 | > 40 | > 40 | > 40 | > 40 | > 40 | > 40 | ≤ 40 | > 40 | > 40 | > 40 | > 40 | ≤ 40 | > 40 | > 40 | > 40 | > 40 | ≤ 40 | ≤ 40 | remaining activity at 1 µM (EPHAS; EPHAS (row 110), 1 µM): ≤ 40%; remaining activity at 1 µM (P38B/MAPK11; P38B/MAPK11, 1 µM): ≤ 40%; remaining activity at 1 µM (SRPK2): > 40%; remaining activity at 1 µM (STK25/YSK1): > 40%; remaining activity at 1 µM (STK33): > 40%; remaining activity at 1 µM (STK39/STLK3): > 40%; remaining activity at 1 µM (TRKA): ≤ 40%; remaining activity at 1 µM (TRKB): ≤ 40%; remaining activity at 1 µM (TTBK1): > 40%; remaining activity at 1 µM (VRK2): > 40%; remaining activity at 1 µM (YES/YES1): ≤ 40%; remaining activity at 1 µM (YSK4/MAP3K19): ≤ 40%; remaining activity at 1 µM (ZIPK/DAPK3): > 40%

Reference: patent EP4722212A1, “NOVEL COMPOUND FOR INHIBITING PROTEIN KINASES AND PHARMACEUTICAL COMPOSITION COMPRISING SAME” (Magicbullettherapeutics Co., Ltd., priority 2023, dated 2024)
